From US20200138056A1, “ANIMAL FEED SUPPLEMENT” (MOOTRAL SA, priority 2017, published 2020) come the findings set out here.

The test system of test [1] is ruminal fluid. Put plainly: in vitro Hohenheim gas test (HGT), methane concentration in fermentation gas. In kind it is cell-based, sheep. As to conditions: 98.8 μg/ml; for Average Reduction (%) / Percentage of Control (First Run) / Percentage of Control (Second Run): methane; for Average Reduction (%): average of two runs. How it is done:
(§1) The in vitro Hohenheim gas test (HGT) including the preparation of all buffers and reagents was carried out according to the protocol of Menke and Steingass (1988), “Menke K. H., Steingass H., Estimation of the energetic feed value obtained from chemical analysis and gas production using rumen fluid, Anim. Res. Dev. 28, 7-55”, the contents of which are incorporated herein by reference.
Briefly, ruminal fluid was strained through four layers of gauze (1 mm pore size, type 17 MedPro, Novamed AG, Flawil, Switzerland), before being mixed with preheated, reduced Menke buffer (Menke and Steingass, 1988). The ruminal fluid/buffer mixture was then dispensed into pre-warmed incubation units containing the respective test additives. Each airtight syringe unit contained 25 ml of a ruminal fluid/buffer mixture (1:3; v/v), 300 mg dried and ground total mixed ration (TMR) and […] of the test substrate prepared to give a desired concentration ml^−1. Each test substrate and controls were tested in six replicates, with each run including a substrate control (rumen fluid plus 300 mg dried and ground substrate of the total mixed ration (TMR) fed to the fistulated sheep from which the ruminal fluid was obtained). Each substrate was also tested on different days to allow for variability in the microbial community. This mixture was incubated for 8 hours at a constant temperature of 39° C. After 8 hours, total gas and liquid volumes were recorded from the calibrated scale printed on the incubation units and fermentation was terminated by decanting only the incubation liquid from the incubation units while fermentation gas was left inside. Then […] of gas was drawn from the incubation units with a Hamilton syringe (Hamilton, AG, Bonaduz, Switzerland) through a gas-tight septum covering the second outlet of the modified units. The main constituents of the flavonoid mix were naringin and neohesperidin at a ratio of 2.10:0.92. Monensin, a polyether antibiotic isolated from Streptomyces cinnamonensis, was used as a positive control.
Fermentation gas was analysed on a Hewlett Packard gas chromatograph (model 5890 Series II, Avondale, Pa., USA) for methane concentration. For the analysis of the volatile fatty acids (VFA), samples were prepared according to the method of Doane et al. (1998) and determined by HPLC (LaChrom, L-7000 series, Hitachi Ltd., Tokyo, Japan) following the protocol of Ehrlich et al. (1981). Reduction in methane emission results in accumulation of H2, which leads to the decreases of acetate:propionate ratio and acetate:butyrate ratio. This decreased ratio indicates an increase in propionate and butyrate (as formation of propionate and butyrate uses up the H2). The increase in propionate would then result in an increase of meat productivity in ruminants, while the increase in butyrate results in an increase of milk productivity in ruminants.
The in vitro Hohenheim gas test (HGT) was used to measure average reduction in methane using a composition comprising allicin and a green tea extract and a composition comprising allicin and a pomegranate extract. The green tea and pomegranate extracts were purchased from Ethical Natural Inc. (USA).
A composition comprising allicin and the flavonoid mix used in Example 1 was also tested. Monensin, a polyether antibiotic isolated from Streptomyces cinnamonensis, was used as a positive control.

The test system of test [2] is ruminal fluid. The test is described as follows: in vitro Hohenheim gas test (HGT), volatile fatty acids (VFA) by HPLC. As to conditions: Table 2; 98.8 μg/ml. Format: cell-based, sheep. The method, then: as §1
Briefly, ruminal fluid was strained through four layers of gauze (1 mm pore size, type 17 MedPro, Novamed AG, Flawil, Switzerland), before being mixed with preheated, reduced Menke buffer (Menke and Steingass, 1988). The ruminal fluid/buffer mixture was then dispensed into pre-warmed incubation units containing the respective test additives. […] After 8 hours, total gas and liquid volumes were recorded from the calibrated scale printed on the incubation units and fermentation was terminated by decanting only the incubation liquid from the incubation units while fermentation gas was left inside. […]
Fermentation gas was analysed on a Hewlett Packard gas chromatograph (model 5890 Series II, Avondale, Pa., USA) for methane concentration. For the analysis of the volatile fatty acids (VFA), samples were prepared according to the method of Doane et al. (1998) and determined by HPLC (LaChrom, L-7000 series, Hitachi Ltd., Tokyo, Japan) following the protocol of Ehrlich et al. (1981). […]

Turning to `CC[C@@]1([C@@H]2O[C@@H]([C@H]3O[C@@](O)(CO)[C@H](C)C[C@@H]3C)C[C@@H]2C)CC[C@H]([C@]2(C)CC[C@]3(C[C@H](O)[C@@H](C)[C@@H]([C@@H](C)[C@@H](OC)[C@H](C)C(=O)O)O3)O2)O1` [Monensin], in test [1] (Table 1, 8 h, 39° C.), the “Average Methane Concentration (%) (First Run)” value is 8.89% and the “Average Methane Concentration (%) (Second Run)” value was 9.71%. For the same molecule, in test [1] (Table 1), the “Average Reduction (%)” value came out at 27%, the “Percentage of Control (First Run)” value was determined as 73% and the “Percentage of Control (Second Run)” value stood at 74%. In addition, in test [1] (Table 3), the “Average Methane Concentration (%) (First Run)” value was found to be 8.2%, the “Average Methane Concentration (%) (Second Run)” value was found to be 9.9%, the “Average Reduction (%)” value came out at 27% and the “Percentage of Control (First Run)” value amounted to 66%. For the same molecule, the “Percentage of Control (Second Run)” value in test [1] (Table 3) is 80%. In addition, in test [1] (Table 4), the “Average Methane Concentration (%) (First Run)” value was 8.1%, the “Average Methane Concentration (%) (Second Run)” value worked out at 7.1%, the “Average Reduction (%)” value is listed as 33% and the “Percentage of Control (First Run)” value was found to be 67%. For the same molecule, the “Percentage of Control (Second Run)” value in test [1] (Table 4) is listed as 66%. Moreover, in test [2], the “Butyrate Percentage of Control (%)” value was determined as 73% and the “Propionate Percentage of Control (%)” value is 116%.
